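Each compound was tested at five concentrations against cells in 96-well plates for 48 hours. GI50 is the concentration that inhibits growth by half. TGI denotes the concentration required for complete inhibition of growth.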

Test in all cases: NCI tumour cell line growth inhibition, 48 h
The test system of assay [1] is MDA-N.
For assay [2], the system named is DMS 114 small cell lung.
For assay [3], the system named is DLD-1 colon.
The subject of assay [4] is KM20L2 colon.
Assay [5] concerns SNB-78 CNS.
The subject of assay [6] is P388 leukemia.
Assay [7] relates to XF 498 CNS.
Assay [8] relates to SN12K1 renal.
For assay [9], the system named is HOP-18 NSCLC.
Assay [10] has as its system LXFL 529 NSCLC.
Assay [11] deals with RXF-631 renal.

`O=C(O)/C(Cc1ccnc2ccccc12)=N\O`: in assay [1], the TGI was over 100 µM.

On to `CS(=O)(=O)OCCCNCCCOS(C)(=O)=O`, for which the TGI amounted to 3630 µM in assay [2]; 9100 µM in assay [3]; 5860 µM in assay [4]; 8530 µM in [5]; 6520 µM in [6]; 2600 µM in assay [7]. Also, the TGI is 2320 µM in assay [8] and 2560 µM in [9].

Take `C1CN(c2nnc(N3CCC3)nn2)C1`: the TGI in assay [2] was 43.6 µM; in assay [3], over 100 µM; in assay [1], 31 µM; in assay [4] it was over 63.7 µM; in assay [5] it was over 100 µM; in [10], 44 µM. In addition, the TGI in assay [7] was 46.1 µM; in assay [9], over 100 µM.

`S=C1Cc2c(-c3ccc(Br)cc3)cc(-c3ccccc3)nc2-c2ccccc2N1`: the TGI in [1] stood at 9.03 µM.

Turning to `Cc1ccc(NC(=O)C(=O)CC(=O)c2c(C)n([O-])c3ccccc3[n+]2=O)cc1C`, the TGI in assay [4], in assay [5], in [10] and in [9] was over 100 µM throughout.

Regarding `CCCCCCCC1(c2ccc(N)cc2)CCC(=O)NC1=O` (stereo not drawn), the TGI in assay [2] was 85.3 µM; in assay [3] it was over 100 µM; in [4], over 100 µM; in assay [5], over 100 µM; in [10], over 100 µM; in [11] it was over 100 µM. In [7], the TGI was found to be 75.2 µM.

For the compound `CC1OC(=O)C(O)=C1O` (stereo not drawn), the TGI in assay [4], in assay [5], in assay [10], in assay [7] and in assay [9] was over 100 µM in each case.

`CN(C)CC1CC/C(=C\c2ccc3c(c2)OCO3)C1=O` (stereo not drawn): the TGI in assay [2] amounted to 37.3 µM; in assay [3] it was 40.3 µM; in [1], 15.6 µM; in assay [4], 36.5 µM; in [5], 51 µM; in assay [10], 25.4 µM. Moreover, the TGI was determined as 31.2 µM in [11], 32.7 µM in assay [7] and 29.7 µM in assay [9].

Consider `CC(C)OC(=S)Nc1ccc(Cl)c(/C=N/OC(C)(C)C)c1`, for which, in assay [1], the TGI amounted to 42 µM.

As to `CCN(CC)CC1CCCCN1CC(=O)N1CC(C)C(=O)Nc2ccccc21` (stereo not drawn), the TGI in assay [2], in assay [3], in assay [4], in assay [10] and in [9] was over 100 µM in each case.

Turning to `CC1=C(C(=O)Nc2ccccc2)C(c2ccccc2Cl)C(C(=O)Nc2ccccc2)=C(C)N1`, the TGI in [3] was over 100 µM; in assay [4] it was 38.9 µM; in assay [10], 37.1 µM; in assay [11], over 100 µM; in [9], 56.5 µM.

With `O=C(O)CCNS(=O)(=O)c1ccc2ccccc2c1`, the TGI in assay [3], in assay [4], in [10], in assay [7] and in [9] was over 100 µM each time.

Consider `C1CCCCc2nc3c(nc2CCC1)c1nc2c(nc1c1nc4c(nc31)CCCCCCCC4)CCCCCCCC2`, for which the TGI in [3], in assay [4], in assay [5], in assay [10], in assay [11] and in assay [9] was over 100 µM throughout.

For `COCCOc1cc(C)cc(/C=C(C)/C=C/C2=C(C)CCCC2(C)C)n1`, the TGI in [2], in [3], in assay [5], in [10], in assay [11] and in assay [7] was over 100 µM each time. The same compound displayed a TGI in [9] of over 100 µM.

Take `COc1ccc(C2=Nc3ccccc3SC(C)C2)cc1OC` (stereo not drawn): the TGI in [2] is 34.8 µM; in [4], 33.6 µM; in assay [5], 66.7 µM; in assay [10], 32 µM; in assay [11], over 100 µM; in [7], 32.8 µM.

Consider `N#CC(C(=O)CCCC(=O)Nc1ccc(Cl)cc1Cl)c1ccccc1` (stereo not drawn), for which the TGI in assay [2], in assay [3], in [4], in [5], in assay [11] and in [9] was over 100 µM in each case.

`O=C(C(=O)n1ncc(Cl)c(Cl)c1=O)n1ncc(Cl)c(Cl)c1=O`: the TGI was over 62.8 µM in [2]; 32.4 µM in assay [3]; over 85.8 µM in assay [4]; 88.2 µM in assay [5]; 41.8 µM in [10]; over 100 µM in assay [11]. Also, the TGI is over 93 µM in assay [7] and 67 µM in assay [9].

On to `CCCCCC(=O)Nc1nc2nc[nH]c2c(=O)[nH]1`, for which the TGI in assay [2], in assay [3], in assay [4], in assay [5], in assay [10] and in assay [7] was over 100 µM in each case. Besides, in assay [9], the TGI was over 100 µM.

On to `Nc1nc2c(C(=O)NCc3cccs3)nnn2c2cccc(Cl)c12`, for which the TGI in assay [1] is over 100 µM.

Consider `C#CC1=CC(=O)C(OC)=CC1=O`, for which the TGI in assay [1] is 37.6 µM.

On to `COC1CC(O)C(OC(=O)c2ccccc2)C(C)O1` (stereo not drawn), for which the TGI in assay [4], in assay [5], in assay [11], in assay [7] and in [9] was over 100 µM throughout.

Take `COc1ccc2oc3c(OC)c(OC)c(OC)cc3c(=O)c2c1`: the TGI in assay [2], in [3], in [4], in [5], in assay [10] and in [11] was over 100 µM each time. Also, the TGI in assay [7] and in assay [9] was over 100 µM in each case.

On to `Cc1ccc(C)c(N2C(=O)C(=O)C(c3nc4ccccc4o3)C(=O)C2=O)c1`, for which the TGI in [2] was over 100 µM; in [3], 65.6 µM; in assay [4], over 100 µM; in [5], over 100 µM; in assay [10] it was over 100 µM; in [11] it was over 100 µM. Besides, in assay [9], the TGI was over 100 µM.

Consider `CCC(C)CC(C)CC(C)/C=C(\C)C1=C(C)CC(C)(O)O1` (stereo not drawn), for which the TGI in [2], in [3], in assay [5], in assay [10], in [11] and in assay [9] was over 100 µM in each case.

Turning to `CCOC(=O)c1cc(-c2ccc(-c3cc(C(=O)OCC)c(C#N)c(N)c3C#N)cc2)c(C#N)c(N)c1C#N`, the TGI in assay [2], in assay [3], in [4], in assay [5], in assay [10] and in assay [11] was over 100 µM each time. Also, the TGI in [7] and in [9] was over 100 µM throughout.

For the compound `Cc1cccc(C(=O)O)c1C(=O)c1cccc2ccccc12`, the TGI in assay [2], in assay [3], in [4], in [5], in assay [10] and in assay [9] was over 100 µM in each case.

Consider `CCCCCC(O)C(O)CCC[C@H](O)[C@H]1CC[C@H]([C@H]2CC[C@H]([C@H](O)CCCCCCCCCCCCC3=C[C@H](C)OC3=O)O2)O1` (stereo partly drawn), for which, in [1], the GI50 is 4.19 µM and the TGI came to 23.5 µM.

For `CCC[CH2][Sn]([CH2]CCC)([S]C#N)[S]C#N`, the GI50 was 0.506 µM in [2]; 0.999 µM in assay [3]; 1.78 µM in assay [4]; 0.663 µM in [5]; 0.122 µM in assay [10]; 0.329 µM in [11]. In addition, the values for the GI50 in [7] and in [9] were 0.779 µM and 1.21 µM, respectively. The TGI in assay [2] turned out to be 2.68 µM; in assay [3], 2.23 µM; in assay [4] it was 3.6 µM; in assay [5], 2.51 µM; in [10], 0.749 µM; in assay [11], 1.43 µM. The results for the TGI in assay [7] and in assay [9] were 1.98 µM and 2.44 µM, respectively.

In the case of `N#Cc1ccccc1NC(=O)C(=O)C1NC(=S)NC1=O` (stereo not drawn), the TGI in assay [2], in [3], in assay [4], in assay [10], in assay [7] and in assay [9] was over 100 µM each time.

With `COC(=O)Nc1nc2ccccc2[nH]1`, in assay [1], the TGI was 11.6 µM.

Take `CCOC(=O)/C(=C/c1cccc(Cl)c1)N(CC)CC`: the TGI was over 100 µM in [2]; over 100 µM in assay [3]; over 100 µM in [10]; over 100 µM in assay [7]; 84.6 µM in assay [9].

For `CC1=C(SC#N)S(=O)(=O)N(c2ccccc2)C(C)=C1SC#N`, the TGI was 38.3 µM in [2]; over 100 µM in [3]; over 100 µM in assay [5]; over 100 µM in assay [10]; 72.3 µM in [7].

Regarding `Cc1ccc2nc(NC(=O)C(=O)C(C#N)c3ccc(Cl)cc3)sc2c1` (stereo not drawn), the TGI in assay [2], in assay [4], in [5], in assay [10], in [7] and in assay [9] was over 50 µM in each case.

For `COc1cc2c(c(OC)c1OC)-c1ccc(SC)c(=O)cc1[C@@H](NCc1ccc([N+](=O)[O-])cc1)CC2`, the TGI in [2] was 0.00735 µM; in [3] it was over 100 µM; in assay [4], 0.00435 µM; in assay [5] it was over 100 µM; in assay [10], over 100 µM; in [9], over 100 µM. Also, the GI50 in assay [9] was over 100 µM.

Take `C/C(CN1C(=O)c2ccccc2C1=O)=N\NS(=O)(=O)c1cccc(C(=O)O)c1`: the TGI in assay [2], in assay [3], in [4], in assay [5], in assay [10] and in [11] was over 100 µM throughout. Further, the TGI in assay [7] and in assay [9] was over 100 µM each time.

Regarding `NC1c2ccccc2Nc2ccccc21`, the TGI in assay [2] turned out to be 12.5 µM; in [3], 17.1 µM; in assay [4], 14.3 µM; in [5], 37.3 µM; in assay [10], 17.5 µM; in assay [7], 11.9 µM. Besides, in assay [9], the TGI stood at 39.7 µM.

`O=[N+]([O-])c1ccc(Cl)c(CNc2ncnc3c2ncn3C2CCCCO2)c1` (stereo not drawn): in assay [1], the TGI amounted to 27 µM.

Consider `CC(C)c1cc(C(C)C)c(S(=O)(=O)N=[N+]=[N-])c(C(C)C)c1`, for which the TGI in assay [3], in assay [4], in assay [10], in [11] and in assay [7] was over 100 µM each time.

As for `Cc1ccc([N+](=O)[O-])c2c(NCCNC(=O)c3cc(C(=O)NCCNc4ccnc5c(C)ccc([N+](=O)[O-])c45)n(C)n3)ccnc12`, the TGI in [1] is over 58 µM.

As to `CC(C)c1cccc(C(C)C)c1N1C(=O)C(=O)C(c2nc3ccccc3o2)C(=O)C1=O`, the TGI in assay [2] was 84.5 µM; in [3] it was over 100 µM; in assay [4] it was over 100 µM; in assay [5] it was over 100 µM; in [10] it was over 100 µM; in assay [11], over 100 µM. The TGI in [7] stood at 89.9 µM.

The record behind these values is PubChem BioAssay (NCI).
